This is an account of results in ChEMBL document CHEMBL1139221, “2-(4-Chlorobenzyl)-3-hydroxy-7,8,9,10-tetrahydrobenzo[H]quinoline-4-carboxylic acid (PSI-697): identification of a clinical candidate from the quinoline salicylic acid series of P-selectin antagonists” (J Med Chem, 2007).

Converted amounts (≈) assume the structure as drawn.

Series [1] deals with T1, P-selectin (Homo sapiens) (UniProt P16109).
T1 sequence (whole entry): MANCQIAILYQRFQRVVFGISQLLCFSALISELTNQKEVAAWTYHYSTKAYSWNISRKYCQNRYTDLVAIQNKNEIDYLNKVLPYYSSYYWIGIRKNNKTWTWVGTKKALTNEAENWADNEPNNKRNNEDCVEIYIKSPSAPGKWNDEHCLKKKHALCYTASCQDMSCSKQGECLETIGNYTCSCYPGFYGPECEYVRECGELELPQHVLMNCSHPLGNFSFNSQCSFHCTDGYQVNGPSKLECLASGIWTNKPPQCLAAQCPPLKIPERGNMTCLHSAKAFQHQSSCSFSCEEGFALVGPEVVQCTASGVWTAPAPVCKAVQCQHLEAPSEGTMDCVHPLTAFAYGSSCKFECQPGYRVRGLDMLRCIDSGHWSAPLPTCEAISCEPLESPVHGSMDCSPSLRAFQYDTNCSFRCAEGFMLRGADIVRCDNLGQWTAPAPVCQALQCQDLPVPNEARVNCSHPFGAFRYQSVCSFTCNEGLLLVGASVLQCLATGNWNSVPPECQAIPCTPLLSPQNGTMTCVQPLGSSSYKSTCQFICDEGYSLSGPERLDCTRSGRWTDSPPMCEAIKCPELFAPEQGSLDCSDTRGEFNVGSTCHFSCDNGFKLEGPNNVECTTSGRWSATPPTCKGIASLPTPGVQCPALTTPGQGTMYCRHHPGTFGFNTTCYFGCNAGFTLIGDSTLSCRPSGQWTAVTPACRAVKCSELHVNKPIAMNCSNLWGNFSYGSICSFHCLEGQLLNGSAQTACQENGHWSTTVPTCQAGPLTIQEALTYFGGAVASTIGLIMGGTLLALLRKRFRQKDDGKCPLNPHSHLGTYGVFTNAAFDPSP
Kind of series: Inhibition of P-Selectin by Biacore assay at 500 uM.

For series [2], the target named is T1, P-selectin (Homo sapiens). Kind of series: Inhibition of P-Selectin by Biacore assay at 250 uM. (In general: In SPR one partner is held on a chip, and binding of the other changes the refractive index at the surface.)
Series [3] in a line: Stability in rat liver microsome. The series is classed as ADME. The following applies: liver microsomes.
In a further series the target is T2, P-selectin (Homo sapiens, UniProt P16109).
T2 sequence (P16109 whole entry): T1 sequence (whole entry)
Kind of series: Inhibition of P-Selectin by Biacore assay.

The species entered for series [4] is Rattus norvegicus. Kind of series: AUC in Sprague-Dawley rat. Conditions: in vivo. Format: ADME, organism-based, Plasma.
The nature of series [5]: Solubility at pH 7.4. Format: physicochemical. The following applies: buffer.
The nature of series [6]: Bioavailability in Sprague-Dawley rat. The series is classed as ADME, organism-based. Conditions: in vivo.
Series [7] in a line: Inhibition of leukocyte rolling in mouse at 50 mg/kg, po. The series is classed as functional.
Series [8] in a line: Bioavailability in C57 mouse. Format: ADME, organism-based. Conditions: in vivo.
The nature of series [9]: Oral bioavailability in Beagle dog at 15 mg/kg. The series is classed as ADME, organism-based, Canis lupus familiaris. The following applies: in vivo.
In series [10] the test system is Mus musculus. Kind of series: Inhibition of aortic lesion in apo E -/- mouse model at 100 mg/kg. Format: functional. Conditions: Aorta.
The test system of series [11] is Rattus norvegicus. Description: Inhibition of neointimal hyperplasia in Sprague-Dawley rat carotid ballon injury model at 30 mg/kg, po. Format: functional.
For series [12], the species on record is Mus musculus. Kind of series: AUC in C57 mouse. The series is classed as ADME, organism-based, Plasma. Conditions: in vivo.

For orientation: inhibition means the percentage by which the read-out fell short of the control. Low readings indicate a response near the control, high ones a response far below the control. `O=C(O)c1c(O)c(Cc2c[nH]c3ccccc23)nc2c(OC(F)(F)F)cccc12` gave an inhibition in [1] of 18%. Turning to `O=C(Nc1c(Cc2ccc(Cl)cc2)nc2c3c(ccc2c1C(=O)O)CCCC3)c1ccccc1`, the inhibition in [2] stood at 19%. By half-life is commonly meant the time needed for the level to fall by half in the phase considered. Read a low half-life as rapid decline. Broadly, the IC50 is the midpoint of a concentration-inhibition curve. Low readings indicate higher potency, high ones lower potency. `O=C(O)c1c(O)c(Cc2ccccc2Cl)nc2c3c(ccc12)CCCC3` registered a half-life in series [3] of 6 min. Besides, inhibition against P-selectin was half-maximal at 123 µM (IC50). For `CC(C)C(=O)Oc1c(Cc2ccc(Cl)cc2)nc2c3c(ccc2c1C(=O)O)CCCC3`, in [2], the inhibition turned out to be 13%. On to `CC(=O)Nc1c(Cc2ccc(Cl)cc2)nc2c3c(ccc2c1C(=O)O)CCCC3`, for which the inhibition in series [2] was 10%. In [1], `O=C(O)c1c(O)c(Cc2ccc(Cl)cc2)nc2c(F)cccc12` displayed an inhibition of 12%. Still for that read-out and setting: next, `Cc1ccc2c(C(=O)O)c(O)c(Cc3ccc(Cl)cc3)nc2c1`: 12%. On the same count and under the same terms, the same measure for `O=C(O)c1c(O)c(Cc2c[nH]c3ccccc23)nc2c(C(F)(F)F)cccc12`: 15%.

In the case of `O=C(O)c1c(O)c(Cc2ccc(Cl)c(Cl)c2)nc2c3c(ccc12)CCCC3`, the inhibition in [1] was 36%. Still for that read-out and setting: the same measure for `O=C(O)c1ccc(Cc2nc3c4c(ccc3c(C(=O)O)c2O)CCCC4)cc1`: 10%.

For the molecule `O=C(O)c1c(O)c(Cc2ccc(Cl)cc2)nc2c(C(=O)O)cccc12`, the inhibition in [1] stood at 8%. In series [2], `COc1c(Cc2ccc(Cl)cc2)nc2c3c(ccc2c1C(=O)O)CCCC3` yielded an inhibition of 20%.

`Nc1c(Cc2ccc(Cl)cc2)nc2c3c(ccc2c1C(=O)O)CCCC3`: the inhibition in [2] was determined as 15%. Take `CC(=O)n1cc(Cc2nc3c4c(ccc3c(C(=O)O)c2O)CCCC4)c2ccccc21`: the inhibition in series [1] worked out at 34%.

`Cc1cccc2c(C(=O)O)c(O)c(Cc3c[nH]c4ccccc34)nc12`: the inhibition in [1] worked out at 11%. `O=C(O)c1c(O)c(Cc2cccc(Cl)c2)nc2c3c(ccc12)CCCC3`: the half-life in [3] stood at 6 min. This molecule showed an IC50 against P-selectin of 138 µM. With `Cc1c(Cc2nc3c4c(ccc3c(C(=O)O)c2O)CCCC4)sc2ccccc12`, the inhibition in series [1] was 22%. Still for that read-out and setting: next, `O=C(O)c1c(O)c(Cc2c[nH]c3ccccc23)nc2c(Br)cccc12`: 15%.

As a reminder, the solubility is the concentration that dissolves in the medium under given conditions. A higher solubility goes with much dissolved substance. For orientation: bioavailability means dose-corrected exposure relative to a reference, in per cent. `O=C(O)c1c(O)c(Cc2c[nH]c3ccc(Cl)cc23)nc2c3c(ccc12)CCCC3`: the AUC/dose in the series listed under Rattus norvegicus [4] worked out at 0.096 µg·h/mL. The molecule further came in with a solubility in series [5] of 20 µg/mL (≈ 49.2 µM). The molecule also registered a bioavailability in series [6] of 5%. The same molecule showed an IC50 against P-selectin of 175 µM.

Usually inhibition in vivo stands for the share of the control response that was lost under treatment. A higher inhibition in vivo goes with strong suppression. As to `O=C(O)c1c(O)c(Cc2ccc(Cl)cc2)nc2c3c(ccc12)CCCC3` [PSI-697], the AUC/dose in the series listed under Rattus norvegicus [4] turned out to be 0.62 µg·h/mL; in the series listed under Mus musculus [12] it was 1.5 µg·h/mL. The molecule further gave an inhibition in vivo at 50 mg/kg in series [7] of 56%. Moreover, the bioavailability in series [8] is 100%; in series [9] it was 58%; in series [6], 20%. 100 mg/kg produced 49% inhibition in vivo in the series on Mus musculus [10]. In the series on Rattus norvegicus [11], this molecule registered an inhibition in vivo at 30 mg/kg of 40%. Moreover, at P-selectin, the IC50 was found to be 125 µM. `O=C(O)c1c(O)c(Cc2c[nH]c3ccc(Cl)cc23)nc2c(C(F)(F)F)cccc12` registered an inhibition in vivo at 50 mg/kg in series [7] of 23%. Also, the IC50 against P-selectin is 250 µM. Molecule `O=C(O)c1c(O)c(Cc2ccc(Cl)cc2)nc2ccc(-c3ccccc3)cc12` returned an inhibition in [1] of 38%. With `O=C(O)c1c(O)c(Cc2c[nH]c3ccccc23)nc2c3c(ccc12)CCCC3`, the AUC/dose in the series filed under Rattus norvegicus [4] was found to be 0.607 µg·h/mL; in the series filed under Mus musculus [12], 0.218 µg·h/mL. In series [7], 50 mg/kg produced 62% inhibition in vivo. Besides, the bioavailability in [8] came to 30%; in series [6] it was 41%. This molecule returned an IC50 against P-selectin of 225 µM.
